Reference: patent publication US20050101673A1, “Use of orally available prostacyclin derivatives for the production of a pharmaceutical agent for treating diseases that are associated with bone marrow edemas” (Schering AG, priority 2002, published 2005)

Columns and labels:
[1] = test system: patients with osteonecrosis or osteoarthritis of the knee; experiment: Random, double-blind comparison study of oral iloprost versus Tramadol; type: in vivo, human
Procedure: To confirm the action of oral iloprost on the bone marrow edema and the pain, a random, double-blind comparison study was performed on the opiate Tramadol® in 41 patients with osteonecrosis or osteoarthritis of the knee in the period from March 2001 to November 2002 according to the GCP guidelines.
Patients of both sexes with resting pain because of an osteonecrosis or osteoarthritis were included in the study if the following criteria were met: • Age between 19 and 60 years, • Bone marrow edema found by means of MRT according to specified criteria.
The treatment was carried out either with iloprost capsules or with outwardly indistinguishable Tramadol capsules that were packaged and characterized according to valid GLP rules. Each capsule contained either 50 μg of iloprost or 50 mg of Tramadol®.
During the first three days of treatment, the study medication was administered in a dosage of 3×1 capsules during the day, which starting on day 4 could be increased individually to increase the success of the therapy (alleviation of pain) up to a maximum dose of 3×2 capsules during the day. In the case of poor tolerance, the dosage could always be reduced to a minimum dose of 2×1 capsules during the day.
The treatment period was one month, followed by a follow-up observation period of two months during which no treatment was given. Previously administered pain-relieving medications should be discontinued before the beginning of the study.
The clinical action of the treatment was determined based on the following parameters: • Evaluation of the intensity of the resting pain and the activity-related pain by the patient based on a 100 mm scale, whereby 0 means “no pain,” and 100 means “intolerable pain.” • Evaluation of the functional condition of the knee by means of Larson scores. • Evaluation of the bone marrow edema by means of MRT.

osteonecrosis = conditions: five-day intravenous infusion; cited from earlier work
[2] = test system: patients with painful bone marrow edema; experiment: 28-day treatment of patients with painful bone marrow edema (summary statements); type: in vivo, human; conditions: 28-day oral treatment; for pain and articulation: follow-up two months after end of treatment
Description: Treatment with orally available prostacyclin derivatives, especially with cyclodextrin clathrates of the prostacyclin derivatives of formula I, thus represents a novel therapy that not only suppresses the symptoms, i.e., the pain, but combats the causes of osteonecrosis and osteoarthritis and for the first time can also be clinical, studied independently.
The β-cyclodextrin clathrate of iloprost, (5- {(1S,5S,6R,7R)-7-hydroxy-6-[(E)-(3R,4RS)-3-hydroxy-4-methyl-oct-1-en-6-inyl]-bicyclo[3.3.0]octane-3-ylidene}pentanoic acid)-β-cyclodextrin clathrate, is especially suitable.

[3] = after 28 days of treatment, persists 2 months without therapy
[4] = listed as iloprost β-cyclodextrin clathrate
[5] = listed as β-cyclodextrin clathrate of iloprost

COc1cccc(C2(O)CCCCC2CN(C)C)c1 (centres unmarked) [Tramadol®, reference compound]
activity-related pain, 100 mm visual analog scale [1, 3]: considerable reduction in pain
resting pain, 100 mm visual analog scale [1, 3]: Almost complete freedom from pain
knee activity score according to Larson (maximum score 100) ([1]; improvement persists 2 months without therapy): pronounced increase
patients with complete degeneration of the bone marrow edema in at least one affected bone ([1]; one month treatment, MRT): 19%

CC#CCC(C)[C@H](O)/C=C/[C@@H]1[C@H]2C/C(=C/CCCC(=O)O)C[C@H]2C[C@H]1O.NC(CO)(CO)CO (some centres unmarked) [Ilomedin®, iloprost-trometamol]
pain in osteonecrosis (osteonecrosis): alleviation of pain in osteonecrosis can be achieved

CC#CCC(C)[C@H](O)/C=C/[C@@H]1[C@H]2C/C(=C/CCCC(=O)O)C[C@H]2C[C@H]1O (stereo partly drawn) [oral iloprost, (5-{(1S,5S,6R,7R)-7-hydroxy-6-[(E)-(3R,4RS)-3-hydroxy-4-methyl-oct-1-en-6-inyl]-bicyclo[3.3.0]octane-3-ylidene}pentanoic acid)-β-cyclodextrin clathrate]
pain and articulation [2, 4]: alleviation of pain and the improved articulation could be observed even two months after the end of treatment
pain and articulation [2, 5]: significant improvement of the pain
bone marrow edema [2, 4]: reduced not only the bone marrow edema
structural integrity of the bone, necrotic areas and lesions [2, 4]: restored the structural integrity
bone marrow edema [2, 5]: significant reduction of the bone marrow edema
structural integrity of the bone, necrotic areas and lesions [2, 5]: healing of necroses
